From article PMC7961380, “A Systematic Study of the In Vitro Pharmacokinetics and Estimated Human In Vivo Clearance of Indole and Indazole-3-Carboxamide Synthetic Cannabinoid Receptor Agonists Detected on the Illicit Drug Market” (Molecules, 2021)

Assays:
[1] = Chromatographic hydrophobicity index (CHI) log D at pH 7.4; conditions: reversed-phase HPLC, Acquity BEH C18 column
Procedure: Chromatographic hydrophobicity index (CHI) log D samples (see below) were analysed using high-performance liquid chromatography (HPLC) with a Shimadzu Nexera X2 HPLC coupled to a Shimadzu SPD-30 MA photodiode array detector (PDA) (Shimadzu, Kyoto, Japan). […] The sample chamber was maintained at 25 °C. Gradient elution was performed, with mobile phase (MP) consisting of ammonium acetate in water (10 mM, pH 7.4) (MP A) and acetonitrile (MP B).
A calibration mix of ten compounds at 10 µg mL^−1 in 1:1 (v/v) water:ACN was used (theophylline, phenyltetrazole, benzimidazole, colchicine, phenyltheophilline, acetophenone, indole, propiophenone, butyrophenone and valerophenone (all Sigma-Aldrich)). Test compounds were prepared at 0.25 mM in 1:1 (v/v) water:ACN. Samples (n = 2 for calibration standards; n = 1 for test compounds) were analysed using UPLC-PDA as described above. Retention times of calibration compounds are used to calculate retention factor (k), which is plotted against literature CHI values for each compound.
Where tr is the retention time of the analyte and t0 is the retention time of an unretained compound
Calculation of chromatographic hydrophobicity index (CHI)
CHI = (𝑘 x slope) − intercept Eqn.4
Where k is the retention factor of the analyte.
Calculation of CHI Log D [1]
Where CHI is the chromatographic hydrophobicity index obtained using Equation 4

[2] = Theoretical fraction unbound for hepatocytes (fuhep) from log D7.4; design: species or system human; conditions: calculated from experimental log D7.4 as Kilford et al. (2008), cell volume 3.9 µL/million cells
Source text: For all MDMB- compounds, and for most (S)-AMB-compounds differences in CLint were within 2.5-fold. […] There are multiple factors which can cause intrinsic clearance by HHeps to differ from HLM [89]. Differences may reflect the relative efficiency of transport of SCRAs and their enantiomers through cell membranes in HHeps and the relative abundance of particular enzymes in HLM and HHeps, targeting different sites of metabolism, particularly carboxylesterases. A dominance of non-CYP enzymes in metabolic clearance can result in CLint being faster in HHeps. […] Glucuronidation is therefore unlikely to cause the differences in clearance rates observed. […] CES-1 is one of the most abundant enzymes in human hepatocytes, present in the endoplasmic reticulum and to a lesser extent in the cytosol. Non-specific binding of drugs to microsomes and hepatocytes results in a lower unbound fraction available to interact with enzymes; differences in binding between HLM and HHep incubations may therefore also cause clearance differences. Non-specific binding may be estimated from log P data. Theoretical fraction unbound for microsomes (fumic) and hepatocytes (fuhep) was calculated using experimental pHLM and pHHep concentrations and incubation volumes, and experimental log D7.4 values, as described by Kilford et al. (2008) with hepatocyte cell volume as 3.9 µL/million cells. […]

[3] = design: method as in PMID 17712819; conditions: cited from earlier work
[4] = cited from earlier work

SMILES | chromatographic logD [1] | estimated fuhep (theoretical fraction unbound for hepatocytes) [2] | protein-bound in plasma [3] | log P [4]
C=CCCCn1nc(C(=O)NC(C(=O)OC)C(C)(C)C)c2ccccc21 (stereo not shown) [MDMB-4en-PINACA (5), methyl 3,3-dimethyl-2-[1-(pent-4-en-1-yl)-1H-indazole-3-carboxamido] butanoate] | 4.95 | 0.47 |  | 
CCCCCc1cc(O)c2c(c1)OC(C)(C)[C@@H]1CCC(C)=C[C@@H]21 [THC, Δ9-tetrahydrocannabinol] |  |  | 95–99% | 6.7
